For the assay, the system named is Influenza A virus (A/Puerto Rico/8/1934(H1N1)). Description: Antiviral activity against Influenza A virus (A/Puerto Rico/8/34(H1N1)) PR/8 infected in MDCK cells assessed as protection against virus-induced cytopathogenicity after 48 hrs by crystal-violet staining-based assay. In kind it is functional, organism-based. As to conditions: PR/8, MDCK.

Results on twelve molecules are retold here after ChEMBL document CHEMBL2407078, “Indole-diterpenoids with anti-H1N1 activity from the aciduric fungus Penicillium camemberti OUCMDZ-1492” (J Nat Prod, 2013).

Consider `CC(C)(O)[C@H]1O[C@H]2CC[C@@]3(C)[C@@H](CC[C@H]4Cc5c([nH]c6ccccc56)[C@@]43C)[C@]2(O)[C@H](O)[C@H]1O`, for which the IC50 (usually the point on the concentration scale where inhibition reaches its midpoint) was 32.2 µM.
The figure for `CC(O)(CO)[C@H]1O[C@H]2CC[C@@]3(C)[C@@](O)(CC[C@H]4Cc5c([nH]c6ccccc56)[C@@]43C)C2=CC1=O` (some centres not stated) is 125 µM.
Take `CC(C)=CCc1cc2[nH]c3c(c2cc1CC=C(C)C)C[C@@H]1CC[C@@]2(O)C4=CC(=O)[C@@H](C(C)(C)O)O[C@H]4CC[C@]2(C)[C@@]31C`: the IC50 was found to be 73.3 µM.
Consider `CC(C)=CCC[C@](C)(O)[C@H](O)CC/C(C)=C/CC/C(C)=C/Cc1c[nH]c2ccccc12`, for which the IC50 is 34.1 µM.
To `CC(C)=CCc1ccc2[nH]c3c(c2c1)C[C@@H]1CC[C@@]2(O)C4=CC(=O)[C@@H](C(C)(C)O)O[C@H]4CC[C@]2(C)[C@@]31C` belongs 6.6 µM; to `CC(C)(O)[C@@H]1CC[C@]2(C(=O)O)[C@H](CC[C@@]3(C)[C@H]2CC[C@H]2Cc4c([nH]c5ccccc45)[C@@]23C)O1`, 38.9 µM; to `CC(C)(O)[C@@H]1CC=C2[C@H](CC[C@@]3(C)[C@H]2CC[C@H]2Cc4c([nH]c5ccccc45)[C@@]23C)O1`, 28.3 µM.
The figure for `CC(C)(O)[C@H]1O[C@H]2CC[C@@]3(C)[C@@H](CC[C@H]4Cc5c([nH]c6ccccc56)[C@@]43C)C2=CC1=O` [DEHYDROXYPAXILLINE] is more than 150 µM; for `CC(C)=CCC[C@]1(C)[C@@H](O)CC[C@@]2(C)[C@H]1CC[C@H]1Cc3c([nH]c4ccccc34)[C@@]12C` [EMINDOLE SB] it is 26.2 µM; for `CC(C)(O)[C@@H]1CC[C@]2(C)[C@H](CC[C@@]3(C)[C@H]2CC[C@H]2Cc4c([nH]c5ccccc45)[C@@]23C)O1` [PASPALINE] it is 77.9 µM.
To `CC(C)(O)[C@H]1O[C@H]2CC[C@@]3(C)[C@@](O)(CC[C@H]4Cc5c([nH]c6ccccc56)[C@@]43C)C2=CC1=O` [PAXILLINE] belongs 17.7 µM; to `NC(=O)c1ncn([C@@H]2O[C@H](CO)[C@@H](O)[C@H]2O)n1` [RIBAVIRIN], 113 µM.
